In patent US20170326125A1, “MULTISUBSTITUTED AROMATIC COMPOUNDS AS INHIBITORS OF THROMBIN” (VERSEON CORPORATION, priority 2016, published 2017):

These molecules were tested against T1, Human thrombin (Homo sapiens, UniProt P00734) (assay: Inhibition of the protease activity of thrombin (chromogenic substrate S-2238)). Conditions: inhibition of the protease activity of thrombin; class symbols a/b/c.
T1 construct: purchased Haematologic Technologies Inc
Assay type: biochemical

Row | IC50 [nM] | Compound
1 | < 100 | CC(=O)Oc1ccccc1C(=O)n1nc(-c2ccccn2)nc1NCc1ccccc1 [Cmpd 177, 2-[5-(benzylamino)-3-(pyridin-2-yl)-1H-1,2,4-triazol-1-yl]carbonylphenyl acetate]
2 | > 1000 | c1cncc(-c2n[nH]c(NCc3cccs3)n2)c1 [Cmpd 178, 3-(pyridin-3-yl)-N-(thiophen-2-ylmethyl)-1H-1,2,4-triazol-5-amine]
3 | > 1000 | CCC(=O)n1nc(-c2cccnc2)nc1NCc1cccc(C#N)c1 [Cmpd 179, 3-([1-propanoyl-3-(pyridin-3-yl)-1H-1,2,4-triazol-5-yl]aminomethyl)benzonitrile]
4 | < 100 | CSc1nc(-c2cccnc2)nn1C(=O)c1ccccc1Cl [Cmpd 180, 3-1-[(2-chlorophenyl)carbonyl]-5-(methylsulfanyl)-1H-1,2,4-triazol-3-ylpyridine]
5 | 100 to 1000 | O=C(c1ccccc1Cl)n1nc(-c2cccnc2)nc1SCc1ccc(F)cc1 [Cmpd 181, 3-1-[(2-chlorophenyl)carbonyl]-5-[(4-fluorophenyl)methyl]sulfanyl-1H-1,2,4-triazol-3-ylpyridine]
6 | < 100 | COc1ccccc1C(=O)n1nc(-c2cccnc2)nc1SC [Cmpd 182, 3-1-[(2-methoxyphenyl)carbonyl]-5-(methylsulfanyl)-1H-1,2,4-triazol-3-ylpyridine]
7 | > 1000 | O=C(Nc1ccccc1)c1cn(-c2ccccn2)nc1NCc1ccc(F)cc1 [Cmpd 183, 3-[(4-fluorophenyl)methyl]amino-N-phenyl-1-(pyridin-2-yl)-1H-pyrazole-4-carboxamide]
8 | > 1000 | O=C(Nc1nc(C(=O)N2CCOCC2)n[nH]1)c1ccc(Cl)cc1 [Cmpd 184, 4-chloro-N-3-[(morpholin-4-yl)carbonyl]-1H-1,2,4-triazol-5-ylbenzamide]
9 | > 1000 | Cc1ccc(C(=O)Nc2nc(C(=O)N3CCOCC3)n[nH]2)cc1 [Cmpd 185, 4-methyl-N-3-[(morpholin-4-yl)carbonyl]-1H-1,2,4-triazol-5-ylbenzamide]
10 | > 1000 | CN(C)C(=O)n1nc(-c2cccnc2)nc1NCc1ccc(F)cc1 [Cmpd 188, 5-[(4-fluorophenyl)methyl]amino-N,N-dimethyl-3-(pyridin-3-yl)-1H-1,2,4-triazole-1-carboxamide]
11 | > 1000 | CC(C)NC(=O)n1nc(-c2cccnc2)nc1NCc1ccc(F)cc1 [Cmpd 190, 5-[(4-fluorophenyl)methyl]amino-N-(propan-2-yl)-3-(pyridin-3-yl)-1H-1,2,4-triazole-1-carboxamide]
12 | > 1000 | O=C(Nc1ccccc1)n1nc(-c2cccnc2)nc1NCc1ccc(F)cc1 [Cmpd 191, 5-[(4-fluorophenyl)methyl]amino-N-phenyl-3-(pyridin-3-yl)-1H-1,2,4-triazole-1-carboxamide]
13 | 100 to 1000 | CCOC(=O)n1nc(-c2cccnc2)nc1NCc1ccc(F)cc1 [Cmpd 192, ethyl 5-[(4-fluorophenyl)methyl]amino-3-(pyridin-3-yl)-1H-1,2,4-triazole-1-carboxylate]
14 | > 1000 | COC(=O)c1n[nH]c(NC(=O)c2ccccc2F)n1 [Cmpd 193, methyl 5-[(2-fluorobenzene)amido]-1H-1,2,4-triazole-3-carboxylate]
15 | > 1000 | COC(=O)c1n[nH]c(NC(=O)c2ccccc2OC)n1 [Cmpd 194, methyl 5-[(2-methoxybenzene)amido]-1H-1,2,4-triazole-3-carboxylate]
16 | > 1000 | COC(=O)c1n[nH]c(NC(=O)c2cccc(Cl)c2)n1 [Cmpd 195, methyl 5-[(3-chlorobenzene)amido]-1H-1,2,4-triazole-3-carboxylate]

Row | Compound | IC50 [nM]
17 | CN(C)C(=O)c1n[nH]c(C(=O)Nc2ccccc2Cl)n1 [Cmpd 186, 5-C-(2-chlorobenzene)-3-N,3-N-dimethyl-1H-1,2,4-triazole-3,5-dicarboxamide] | > 1000
18 | CNC(=O)c1n[nH]c(C(=O)Nc2ccccc2Cl)n1 [Cmpd 187, 5-C-(2-chlorobenzene)-3-N-methyl-1H-1,2,4-triazole-3,5-dicarboxamide] | > 1000
